Assay results: patent US8129427B2, “2-phenylethylamino derivatives as calcium and/or sodium channel modulators” (Newron Pharmaceuticals S.p.A., priority 2005, dated 2012)

Columns and labels:
[1] = tested on: sodium currents of cortical neurons; test: Inhibition of sodium currents in cortical neurons (whole cell patch clamp); format: cell-based; settings: embryonic Wistar rat cortical neurons, preconditioning −50 mV (half maximal steady-state condition); read-out: IC50 (Vhalf)
Method: Cell Preparation and culturing: cortical neurons were prepared from embryonic Wistar rats (E17-E19). Brains of E17/E19 rats were removed and placed in ice-cold Hank's solution (Hank's solution (Life tech.14170-088)+glucose 30%+Pen-Strep 100× (Life Tech. 15140-122) 100 U-100 μg/ml and Hepes-NaOH 5 mM).
Cortex were isolated, cut in small parts and washed twice with Hank's solution. The solution was removed except 1-2 ml and the tissue was mechanically dissociated. After the mechanical dissociation, 5 ml of complete DMEM (Dulbecco's modified Eagle medium) (Gibco 41966-029)+FBS (Hyclone) 10%+Glutamine (Life Tech. 25030-024) 2 mM+Pen-Strep 100 U-100 μg/ml were added, and cell suspension was centrifuged for 5 min at 1000 rpm. Supernatant was removed and 5 ml of complete Neurobasal medium was added (Neurobasal medium (Life tech. 21103-049)+B27 (Life tech. 17504-044) 2%+Glutamine 2 mM+Pen-Strep 100 U-100 μg/ml)
Cells were counted and diluted in Neurobasal medium to a concentration of 400000 cells per poly-D-lysine 5 μg/ml treated Petri dish. […]
Whole Cell Patch Clamp Recordings: Experiments on cortical neurons were carried out using standard whole cell patch clamp methods (Hamill et al., 1981). Membrane currents were recorded and filtered at 5 kHz with an Axon Axopatch 200B amplifier and data digitized with an Axon Digidata 1322A (Axon Instruments, CA, USA). […]

[2] = tested on: maximal electroshock seizures in mice; test: Maximal electroshock test (MES) in mice; format: in vivo, mouse; settings: i.v., 5 minutes before testing
Excerpt: Animals and Apparatus: Male CDl mice weighing 25 g were used. The procedure described by White et al. (White H. S., Woodhead J. H., Franklin […]., and Wolf H. H. Antiepileptic Drugs (1995) 4th ed: 99-110, Raven Press, Ltd., New York) was followed. An Ugo Basile electroconvulsive generator (Model ECT UNIT 7801) was used to deliver an electrical stimulus sufficient to produce a hindlimb tonic extensor response in at least 97% of control animals. The stimulus was delivered intra-aurally through clip electrodes in mice (0.7 s of a 40 mA shock, with a pulse train of 80 Hz having a pulse duration of 0.4 ms). […] Ten mice were studied per group. Complete suppression of the hindlimb tonic extensor component of seizures was taken as evidence of anticonvulsant activity.

[3] = tested on: PCP induced deficits in the 5-CSRT task in DBA/2N mice; test: Cognitive impairment in schizophrenia: PCP-induced deficits in five-choice serial reaction time task; format: in vivo, mouse
[4] = target: recombinant human N-type channels, h α1B (hCav2.2)+β1b+α2δ-1 subunits (Homo sapiens, UniProt Q00975); test: Patch clamp studies of calcium currents inhibition in HEK293 cells; format: cell-based; settings: tonic block, preconditioning −50/−55 mV (half maximal steady-state inactivated condition); read-out: IC50 (Vhalf)
Method: Functional inhibition of the N-type Ca currents was studied using whole cell patch clamp methods (Hamill O. P., Marty A., Neher E., Sakmann B., Sigworth F. J. Pflugers Arch. (1981) 391: 85-100) on HEK293 cells expressing recombinant human N-type channels, obtained after transient transfection of h α1B (hCav2.2)+β1b+α2δ-1 subunits.
Membrane currents were recorded and filtered at 5 kHz with an Axon Axopatch 200B amplifier and digitized with an Axon Digidata 1322A (Axon Instruments, CA, USA). Voltage clamping of membrane potentials and data acquisition were controlled online with Axon pClamp8 software. Measuring and reference electrodes were AgCl—Ag electrodes. Cells had initial seal resistances of >1 GΩ and access resistances of 4.2±0.2 MΩ. Cells were continuously superfused with extracellular solutions using a Biologic RSC-200.
For calcium currents recording the control bath solution contained (mM): Choline chloride (70), MgCl2 (1), BaCl2 (20), TEA.Cl (50), Hepes (10), Glucose (10). Internal pipette solution consisted of (mM): CsCl (140), EGTA (10), MgCl2 (2), Hepes (10), MgATP (1), GTP Tris (0.3).
Compounds were dissolved as 20 mM stock solutions in DMSO and then diluted to the final concentration in the external solutions.
A two-step protocol was used to determine the voltage dependence of the block:
N-type current was activated by a 600 ms step pulse to +10 mV (test pulse) from a 5000 ms preconditioning potential of −110 mV (resting condition) or −50/−55 mV (half maximal steady-state inactivated condition), respectively.
The amplitude of calcium current peaks evoked by the respective test pulses at a frequency of 0.06 Hz were measured before and after exposure to the test substance. Tonic block of currents was calculated as the difference between the peak calcium current measured at the end of a stabilization period in the control external bath solution and peak currents measured at the end of test substance perfusion period (when steady state is reached) divided by control peaks. […]

[5] = 10 mg/Kg i.p. + PCP (1.5 mg/kg)

recombinant human N-type channels, h α1B (hCav2.2)+β1b+α2δ-1 subunits, sequence (Q00975 whole entry): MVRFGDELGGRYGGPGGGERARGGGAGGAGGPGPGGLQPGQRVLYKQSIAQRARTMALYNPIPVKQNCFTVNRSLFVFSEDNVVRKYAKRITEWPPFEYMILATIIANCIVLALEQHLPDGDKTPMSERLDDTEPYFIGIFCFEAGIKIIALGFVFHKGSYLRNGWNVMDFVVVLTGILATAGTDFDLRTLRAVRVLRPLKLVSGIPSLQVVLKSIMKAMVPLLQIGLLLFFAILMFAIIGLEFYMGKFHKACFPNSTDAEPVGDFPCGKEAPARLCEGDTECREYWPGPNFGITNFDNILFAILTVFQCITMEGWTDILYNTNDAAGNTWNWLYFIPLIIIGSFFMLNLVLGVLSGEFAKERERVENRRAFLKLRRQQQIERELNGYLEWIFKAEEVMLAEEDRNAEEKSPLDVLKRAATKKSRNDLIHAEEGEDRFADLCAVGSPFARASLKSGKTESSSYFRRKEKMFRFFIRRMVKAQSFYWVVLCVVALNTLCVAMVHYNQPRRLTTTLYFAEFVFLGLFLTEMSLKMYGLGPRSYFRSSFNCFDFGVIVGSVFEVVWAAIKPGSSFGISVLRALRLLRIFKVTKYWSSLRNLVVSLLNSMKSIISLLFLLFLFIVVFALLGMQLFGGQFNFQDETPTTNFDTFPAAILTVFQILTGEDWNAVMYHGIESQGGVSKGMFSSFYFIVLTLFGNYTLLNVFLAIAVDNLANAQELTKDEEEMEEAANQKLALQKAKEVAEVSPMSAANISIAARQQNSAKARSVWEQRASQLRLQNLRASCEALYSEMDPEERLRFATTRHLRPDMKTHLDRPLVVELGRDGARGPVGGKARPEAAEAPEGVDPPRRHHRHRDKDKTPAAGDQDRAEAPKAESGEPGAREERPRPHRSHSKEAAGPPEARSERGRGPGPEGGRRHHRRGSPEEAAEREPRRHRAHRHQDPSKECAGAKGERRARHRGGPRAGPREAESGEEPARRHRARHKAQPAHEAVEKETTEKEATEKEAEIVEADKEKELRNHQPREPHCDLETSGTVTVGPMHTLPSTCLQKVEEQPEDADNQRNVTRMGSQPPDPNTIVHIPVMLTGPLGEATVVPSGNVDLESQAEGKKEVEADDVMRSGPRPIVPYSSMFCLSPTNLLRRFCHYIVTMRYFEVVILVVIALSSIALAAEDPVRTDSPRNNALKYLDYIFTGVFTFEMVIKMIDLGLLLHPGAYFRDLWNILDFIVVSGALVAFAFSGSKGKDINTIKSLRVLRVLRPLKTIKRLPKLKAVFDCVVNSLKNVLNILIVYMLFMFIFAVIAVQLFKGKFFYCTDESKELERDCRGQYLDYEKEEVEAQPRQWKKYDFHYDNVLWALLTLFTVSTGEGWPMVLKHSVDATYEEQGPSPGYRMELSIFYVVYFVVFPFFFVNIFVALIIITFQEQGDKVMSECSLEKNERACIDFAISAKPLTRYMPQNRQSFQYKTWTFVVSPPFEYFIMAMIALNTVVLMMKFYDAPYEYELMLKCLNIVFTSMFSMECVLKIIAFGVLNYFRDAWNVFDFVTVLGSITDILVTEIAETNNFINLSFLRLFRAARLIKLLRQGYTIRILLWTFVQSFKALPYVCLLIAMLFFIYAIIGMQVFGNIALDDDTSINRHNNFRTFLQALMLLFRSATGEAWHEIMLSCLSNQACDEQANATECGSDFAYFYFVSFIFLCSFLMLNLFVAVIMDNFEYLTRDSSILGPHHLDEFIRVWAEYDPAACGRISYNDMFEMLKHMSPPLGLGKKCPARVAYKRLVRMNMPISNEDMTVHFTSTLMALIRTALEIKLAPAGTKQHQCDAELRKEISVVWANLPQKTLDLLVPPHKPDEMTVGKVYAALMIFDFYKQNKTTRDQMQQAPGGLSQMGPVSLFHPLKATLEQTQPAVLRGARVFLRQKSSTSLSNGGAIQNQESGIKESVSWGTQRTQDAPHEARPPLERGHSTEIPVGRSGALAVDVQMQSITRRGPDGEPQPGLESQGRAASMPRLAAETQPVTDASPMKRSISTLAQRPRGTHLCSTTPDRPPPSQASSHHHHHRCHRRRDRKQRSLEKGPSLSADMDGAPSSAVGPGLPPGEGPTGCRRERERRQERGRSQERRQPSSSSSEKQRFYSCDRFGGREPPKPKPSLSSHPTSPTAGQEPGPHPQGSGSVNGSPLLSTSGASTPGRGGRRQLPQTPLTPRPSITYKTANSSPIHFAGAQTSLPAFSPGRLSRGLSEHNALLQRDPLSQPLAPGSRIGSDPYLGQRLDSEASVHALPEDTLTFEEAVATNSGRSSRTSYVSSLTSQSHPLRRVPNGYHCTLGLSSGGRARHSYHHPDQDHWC
recombinant human N-type channels, h α1B (hCav2.2)+β1b+α2δ-1 subunits, sequence (Q02641 whole entry partner): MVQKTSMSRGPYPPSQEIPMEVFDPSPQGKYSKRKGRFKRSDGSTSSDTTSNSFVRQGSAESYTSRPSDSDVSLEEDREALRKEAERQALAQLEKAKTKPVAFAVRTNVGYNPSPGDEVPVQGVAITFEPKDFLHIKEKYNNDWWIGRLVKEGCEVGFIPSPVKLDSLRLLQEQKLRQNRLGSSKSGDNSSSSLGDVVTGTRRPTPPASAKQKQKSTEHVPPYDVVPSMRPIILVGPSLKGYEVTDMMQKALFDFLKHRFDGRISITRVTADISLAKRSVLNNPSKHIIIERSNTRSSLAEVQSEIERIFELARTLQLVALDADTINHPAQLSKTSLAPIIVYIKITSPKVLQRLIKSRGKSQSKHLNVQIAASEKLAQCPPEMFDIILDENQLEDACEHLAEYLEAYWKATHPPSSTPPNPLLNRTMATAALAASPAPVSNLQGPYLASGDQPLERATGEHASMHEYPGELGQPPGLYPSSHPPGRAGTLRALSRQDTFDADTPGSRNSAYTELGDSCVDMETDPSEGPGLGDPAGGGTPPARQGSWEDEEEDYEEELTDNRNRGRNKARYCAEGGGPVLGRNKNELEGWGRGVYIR
recombinant human N-type channels, h α1B (hCav2.2)+β1b+α2δ-1 subunits, sequence (P54289 25-956 partner limits assumed): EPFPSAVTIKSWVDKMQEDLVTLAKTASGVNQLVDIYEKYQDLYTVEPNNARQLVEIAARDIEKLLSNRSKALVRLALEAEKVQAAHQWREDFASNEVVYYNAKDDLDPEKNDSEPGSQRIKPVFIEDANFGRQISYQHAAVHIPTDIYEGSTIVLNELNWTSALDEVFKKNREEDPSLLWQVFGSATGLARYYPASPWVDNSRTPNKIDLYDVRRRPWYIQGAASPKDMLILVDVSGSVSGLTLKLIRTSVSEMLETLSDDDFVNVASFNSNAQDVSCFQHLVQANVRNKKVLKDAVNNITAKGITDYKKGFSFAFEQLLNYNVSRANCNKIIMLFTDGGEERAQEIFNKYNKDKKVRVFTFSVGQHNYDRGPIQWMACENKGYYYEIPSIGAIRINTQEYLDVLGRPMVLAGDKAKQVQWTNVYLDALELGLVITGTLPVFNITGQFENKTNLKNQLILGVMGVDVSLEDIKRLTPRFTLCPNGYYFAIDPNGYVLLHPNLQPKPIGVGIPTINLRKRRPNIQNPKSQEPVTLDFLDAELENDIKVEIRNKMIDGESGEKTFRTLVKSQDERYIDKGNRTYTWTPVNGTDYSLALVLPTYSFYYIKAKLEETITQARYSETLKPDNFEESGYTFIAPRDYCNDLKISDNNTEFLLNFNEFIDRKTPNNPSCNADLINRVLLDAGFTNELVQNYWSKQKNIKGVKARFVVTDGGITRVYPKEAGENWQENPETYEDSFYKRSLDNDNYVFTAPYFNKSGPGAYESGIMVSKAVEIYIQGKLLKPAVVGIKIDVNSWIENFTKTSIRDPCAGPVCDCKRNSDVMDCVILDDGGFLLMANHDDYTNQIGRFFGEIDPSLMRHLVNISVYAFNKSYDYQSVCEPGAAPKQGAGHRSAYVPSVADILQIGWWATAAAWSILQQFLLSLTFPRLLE
recombinant human N-type channels, h α1B (hCav2.2)+β1b+α2δ-1 subunits, sequence (P54289 957-1103 partner limits assumed): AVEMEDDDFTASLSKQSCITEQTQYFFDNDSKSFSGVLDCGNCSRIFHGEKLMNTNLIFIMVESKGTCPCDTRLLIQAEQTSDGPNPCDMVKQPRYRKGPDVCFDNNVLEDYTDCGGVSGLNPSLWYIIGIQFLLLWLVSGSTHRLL

SMILES | IC50 [1] [µM] | 50% Protection [2] | N of anticipatory resposnses [3, 5] | N of perseverative responses [3, 5] | N of anticipatory resposnses ([3]; 10 mg/Kg i.p. + vehicle) | N of perseverative responses ([3]; 10 mg/Kg i.p. + vehicle) | IC50 [4] [µM]
CCCCOc1cccc(CCN(CC(=O)N(C)C)CC2CCOC2)c1.Cl (racemic) [Example 96, 2-[[2-(3-Butoxy-phenyl)-ethyl]-(tetrahydrofuran-3-ylmethyl)amino]-N,N-dimethyl-acetamide hydrochloride] | 0.5 | (0.8 mg/kg/iv) | 3.7 ± 1.6 | 15.7 ± 3.1 | 3.3 ± 0.7 | 20.9 ± 1.3 | –
C[C@H](NCc1ccc(OCc2ccccc2F)cc1)C(N)=O [ralfinamide, (S)-(+)-2-[4-(2-fluoro-benzyloxy)-benzylamino]-propanamide, reference compound] | 9 | – | – | – | – | – | 15
